Test results as given in US9321728B2, “Beta-alanine derivatives, pharmaceutically acceptable salts thereof, and pharmaceutical composition comprising same as active ingredient” (KOREA RESEARCH INSTITUTE OF CHEMICAL TECHNOLOGY, priority 2012, dated 2016).
pIC50: −log10 of the molar value.

Target: human DGAT1 (Homo sapiens (Human), UniProt O75907)
Assay: Human DGAT1 enzyme inhibition test (phospholipid FlashPlate, [14C]decanoyl-CoA)
Assay type: biochemical
Details: for pIC50: lysate of Hep3B cells over-expressing human DGAT1 (5 μg/well), didecanoyl glycerol and [14C]decanoyl-CoA substrates; for in vitro inhibition activity with respect to DGAT1: verbal summary of Table 1
Protocol: The cells were treated with 200 μg/ml G-418(Sigma) once every three days for 4 weeks to over-express the human DGAT1, thereby obtaining a stabilized cell line. The over-expressed cells were put into a homogenization buffer [250 mM sucrose, 10 mM Tris-HCl (pH 7.4), 1 mM EDTA] and lysed by a homogenization apparatus. Then, centrifugation was performed with 600×g for 15 minutes to remove cell residue, and the obtained cells were used for an enzyme inhibition test. Human DGAT-1 and mouse DGAT activity was determined as follows: Assay buffer [20 mM HEPES (pH 7.4), 100 mM MgCl2, 0.04% BSA] containing 500 μM of enzyme substrate (didecanoyl glycerol) and 7.5 μM radiolabeled acyl-CoA substrate ([^14C]decanoyl-CoA) was added to each well of a phospholipid FlashPlate (PerkinElmer Life Sciences). A small aliquot of lysate (5 μg/well) or mouse liver microsome (0.1 mg/well) was added to start the reaction, which was allowed to proceed in a 20° C. bath for 1 hour. and maintained overnight at room temperature. Next day, measurement was performed by Wallac 1450 Microbeta Trilux Liquid Scintillation Counter and Luminometer (PerkinElmer Life Science). […] A calculation method of inhibition degree (%) is as follows.

Sequence of human DGAT1 (O75907 whole entry): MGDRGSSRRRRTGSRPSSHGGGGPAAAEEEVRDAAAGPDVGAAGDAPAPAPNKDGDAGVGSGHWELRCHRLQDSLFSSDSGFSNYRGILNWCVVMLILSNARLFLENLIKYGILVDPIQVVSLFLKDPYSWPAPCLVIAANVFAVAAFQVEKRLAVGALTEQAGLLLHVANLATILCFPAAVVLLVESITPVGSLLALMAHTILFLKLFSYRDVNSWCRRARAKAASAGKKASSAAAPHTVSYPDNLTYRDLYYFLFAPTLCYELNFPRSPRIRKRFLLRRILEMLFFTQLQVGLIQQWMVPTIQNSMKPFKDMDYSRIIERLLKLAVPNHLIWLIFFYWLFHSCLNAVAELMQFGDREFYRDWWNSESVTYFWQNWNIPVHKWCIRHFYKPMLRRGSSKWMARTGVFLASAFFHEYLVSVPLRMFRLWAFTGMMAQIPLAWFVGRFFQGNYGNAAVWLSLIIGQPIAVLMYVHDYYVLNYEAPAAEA

Row | Structure (SMILES) | pIC50 | in vitro inhibition activity with respect to DGAT1
1 | CCOc1ccc(C(=O)NCCC(=O)Nc2ccc([C@H]3CC[C@H](CC(=O)O)CC3)cc2)cc1 [Compound 4, trans-(4-{4-[3-(4-ethoxybenzoylamino)propionylamino]phenyl}cyclohexyl)acetic acid] | > 7.30 | good to excellent
2 | O=C(O)C[C@H]1CC[C@H](c2ccc(NC(=O)CCNC(=O)c3nc(-c4ccccc4)oc3C(F)(F)F)cc2)CC1 [Compound 6, trans-[4-(4-{3-[(2-Phenyl-5-trifluoromethyloxazole-4-carbonyl)amino]propionylamino}phenyl)cyclohexyl]acetic acid] | > 7.30 | good to excellent
3 | O=C(O)C[C@H]1CC[C@H](c2ccc(NC(=O)CCNC(=O)c3cn(-c4ccccc4)nc3C(F)(F)F)cc2)CC1 [Compound 7, trans-[4-(4-{3-[(1-phenyl-3-trifluoromethyl-1H-pyrazole-4-carbonyl)amino]propionylamino}phenyl)cyclohexyl]acetic acid] | > 7.00 | 
4 | O=C(O)C[C@H]1CC[C@H](c2ccc(NC(=O)CCNC(=O)c3nc(-c4ccccc4Cl)oc3C(F)(F)F)cc2)CC1 [Compound 11, trans-{4-[4-(3-{[2-(2-chlorophenyl)-5-trifluoromethyloxazole-4-carbonyl]amino}propionylamino)phenyl]cyclohexyl}acetic acid] | > 7.30 | good to excellent
5 | O=C(O)C[C@H]1CC[C@H](c2ccc(NC(=O)CCNC(=O)c3oc(-c4ccccc4)nc3C(F)(F)F)cc2)CC1 [Compound 15, trans-[4-(4-{3-[(2-phenyl-4-trifluoromethyloxazole-5-carbonyl)amino]propionylamino}phenyl)cyclohexyl]acetic acid] | > 7.00 | 
6 | Cc1ccc(-c2nc(C(=O)NCCC(=O)Nc3ccc([C@H]4CC[C@H](CC(=O)O)CC4)cc3)c(C(F)(F)F)o2)cc1 [Compound 19, trans-[4-(4-{3-[(2-p-tolyl-5-trifluoromethyloxazole-4-carbonyl)amino]propionylamino}phenyl)cyclohexyl]acetic acid] | > 7.00 | 
7 | Cc1ccccc1-c1nc(C(=O)NCCC(=O)Nc2ccc([C@H]3CC[C@H](CC(=O)O)CC3)cc2)c(C(F)(F)F)o1 [Compound 21, trans-[4-(4-{3-[(2-o-tolyl-5-trifluoromethyloxazole-4-carbonyl)amino]propionylamino}phenyl)cyclohexyl]acetic acid] | > 7.00 | 
8 | O=C(O)C[C@H]1CC[C@H](c2ccc(NC(=O)CCNC(=O)c3nc(-c4ccccc4)oc3C(F)(F)F)cc2)CC1 [Compound 22, sodium; trans-[4-(4-{3-[(2-phenyl-5-trifluoromethyloxazole-4-carbonyl)amino]propionylamino}phenyl)cyclohexyl]acetate] | > 6.30 | 
9 | O=C(O)C[C@H]1CC[C@H](c2ccc(NC(=O)CCNC(=O)c3nc(-c4ccc(Br)cc4)oc3C(F)(F)F)cc2)CC1 [Compound 27, trans-{4-[4-(3-{[2-(4-bromophenyl)-5-trifluoromethyloxazole-4-carbonyl]amino}propionylamino)phenyl]cyclohexyl}acetic acid] | > 7.00 | 
10 | Cc1oc(-c2ccccc2)nc1C(=O)NCCC(=O)Nc1ccc([C@H]2CC[C@H](CC(=O)O)CC2)cc1 [Compound 31, trans-[4-(4-{3-[(5-methyl-2-phenyloxazole-4-carbonyl)amino]propionylamino}phenyl)cyclohexyl]acetic acid] | > 7.00 | 
11 | Cc1nc(-c2ccccc2)sc1C(=O)NCCC(=O)Nc1ccc([C@H]2CC[C@H](CC(=O)O)CC2)cc1 [Compound 33, trans-[4-(4-{3-[(4-methyl-2-phenylthiazole-5-carbonyl)amino]propionylamino}phenyl)cyclohexyl]acetic acid] | > 6.30 | 
12 | O=C(O)C[C@H]1CC[C@H](c2ccc(NC(=O)CCNC(=O)c3sc(-c4ccccc4)nc3C(F)(F)F)cc2)CC1 [Compound 37, trans-[4-(4-{3-[(2-phenyl-4-trifluoromethylthiazole-5-carbonyl)amino]propionylamino}phenyl)cyclohexyl]acetic acid] | > 7.00 | 
13 | NC(=O)C[C@H]1CC[C@H](c2ccc(NC(=O)CCNC(=O)c3nc(-c4ccccc4)oc3C(F)(F)F)cc2)CC1 [Compound 41, trans-2-phenyl-5-trifluoromethyloxazole-4-carboxylic acid{2-[4-(4-carbamoylmethylcyclohexyl)phenylcarbamoyl]ethyl}amide] | > 7.30 | good to excellent
14 | Cc1ccc(-n2cc(C(=O)NCCC(=O)Nc3ccc([C@H]4CC[C@H](CC(=O)O)CC4)cc3)c(C(F)(F)F)n2)cc1 [Compound 47, trans-[4-(4-{3-[(1-p-tolyl-3-trifluoromethyl-1H-pyrazole-4-carbonyl)amino]propionylamino}phenyl)cyclohexyl]acetic acid] | > 7.00 | 
15 | O=C(O)C[C@H]1CC[C@H](c2ccc(NC(=O)CCNC(=O)c3cn(-c4ccc(Cl)cc4)nc3C(F)(F)F)cc2)CC1 [Compound 49, trans-{4-[4-(3-{[1-(4-chlorophenyl)-3-trifluoromethyl-1H-pyrazole-4-carbonyl]amino}propionylamino)phenyl]cyclohexyl}acetic acid] | > 7.00 | 
16 | O=C(O)C[C@H]1CC[C@H](c2ccc(NC(=O)CCNC(=O)c3cn(-c4ccccc4Cl)nc3C(F)(F)F)cc2)CC1 [Compound 51, trans-{4-[4-(3-{[1-(2-Chlorophenyl)-3-trifluoromethyl-1H-pyrazole-4-carbonyl]amino}propionylamino)phenyl]cyclohexyl}acetic acid] | > 7.00 | 
17 | O=C(O)C[C@H]1CC[C@H](c2ccc(NC(=O)CCNC(=O)c3nc(-c4ccc(F)cc4)oc3C(F)(F)F)cc2)CC1 [Compound 56, trans-{4-[4-(3-{[2-(4-fluorophenyl)-5-trifluoromethyloxazole-4-carbonyl]amino}propionylamino)phenyl]cyclohexyl}acetic acid] | > 6.30 | 
18 | O=C(O)C[C@H]1CC[C@H](c2ccc(NC(=O)CCNC(=O)c3ccc(OCC4CC4)cc3)cc2)CC1 [Compound 58, trans-(4-{4-[3-(4-cyclopropylmethoxybenzoylamino)propionylamino]phenyl}cyclohexyl)acetic acid] | > 6.30 | 
19 | O=C(O)C[C@H]1CC[C@H](c2ccc(NC(=O)CCNC(=O)c3nc(-c4ccccc4F)oc3C(F)(F)F)cc2)CC1 [Compound 60, trans-{4-[4-(3-{[2-(2-Fluorophenyl)-5-trifluoromethyloxazole-4-carbonyl]amino}propionylamino)phenyl]cyclohexyl}acetic acid] | > 7.30 | good to excellent
20 | O=C(O)C[C@H]1CC[C@H](c2ccc(NC(=O)CCNC(=O)c3nc(-c4ccc(Cl)cc4Cl)oc3C(F)(F)F)cc2)CC1 [Compound 64, trans-{4-[4-(3-{[2-(2,4-dichlorophenyl)-5-trifluoromethyloxazole-4-carbonyl]amino}propionylamino)phenyl]cyclohexyl}acetic acid] | > 7.30 | good to excellent
21 | O=C(O)C[C@H]1CC[C@H](c2ccc(NC(=O)CCNC(=O)c3nc(-c4ccccc4Br)oc3C(F)(F)F)cc2)CC1 [Compound 65, trans-{4-[4-(3-{[2-(2-Bromophenyl)-5-trifluoromethyloxazole-4-carbonyl]amino}propionylamino)phenyl]cyclohexyl}acetic acid] | > 7.30 | good to excellent
22 | O=C(O)C[C@H]1CC[C@H](c2ccc(NC(=O)CCNC(=O)c3nc(-c4ccccc4C(F)(F)F)oc3C(F)(F)F)cc2)CC1 [Compound 66, trans-{4-[4-(3-{[5-trifluoromethyl-2-(2-trifluoromethylphenyl)oxazole-4-carbonyl]amino}propionylamino)phenyl]cyclohexyl}acetic acid] | > 7.30 | good to excellent
23 | O=C(O)C[C@H]1CC[C@H](c2ccc(NC(=O)CCNC(=O)c3nc(-c4c(Cl)cccc4Cl)oc3C(F)(F)F)cc2)CC1 [Compound 68, trans-{4-[4-(3-{[2-(2,6-dichlorophenyl)-5-trifluoromethyloxazole-4-carbonyl]amino}propionylamino)phenyl]cyclohexyl}acetic acid] | > 7.30 | good to excellent
24 | O=C(O)C[C@H]1CC[C@H](c2ccc(NC(=O)CCNC(=O)c3nc(-c4c(Cl)cccc4Cl)oc3C(F)(F)F)cc2)CC1 [Compound 69, sodium; trans-{4-[4-(3-{[2-(2,6-dichlorophenyl)-5-trifluoromethyloxazole-4-carbonyl]amino}propionylamino)phenyl]cyclohexyl}acetate] | > 7.30 | 
25 | O=C(O)C[C@H]1CC[C@H](c2ccc(NC(=O)CCNC(=O)c3nc(-c4c(F)cccc4Cl)oc3C(F)(F)F)cc2)CC1 [Compound 73, trans-{4-[4-(3-{[2-(2-chloro-6-fluorophenyl)-5-trifluoromethyloxazole-4-carbonyl]amino}propionylamino)phenyl]cyclohexyl}acetic acid] | > 7.00 | 
26 | Cc1cccc(C)c1-c1ccc(C(=O)NCCC(=O)Nc2ccc([C@H]3CC[C@H](CC(=O)O)CC3)cc2)cc1 [Compound 75, trans-[4-(4-(3-(2′,6′-dimethylbiphenyl-4-carbonylamino)propionylamino)phenyl)cyclohexyl]acetic acid] | > 7.00 | 
